Experimental data published in patent US20100081661A1, “HEME OXYGENASE INHIBITORS, SCREENING METHODS FOR HEME OXYGENASE INHIBITORS AND METHODS OF USE OF HEME OXYGENASE INHIBITORS FOR ANTIMICROBIAL THERAPY” (UNIVERSITY OF MARYLAND, BALTIMORE, priority 2006, published 2010).
pKd: −log10 of the molar value. Like-named read-outs stand apart in the source and are kept apart here.

Tests used:
[1] = target: T1, nm-HO (Neisseria meningitidis, UniProt Q9AH50); test: biochemical; format: binding
[2] = target: T2, pa-HO (Pseudomonas aeruginosa, UniProt O69002); test: biochemical; format: binding; conditions: for pKd: read-out: Fluorescence pa-HO Kd
[3] = system: C. elegans; test: C. elegans assay (infected worms); format: in vivo; conditions: for C. elegans: Table 3A, infected worms
[4] = target: T2, pa-HO; format: binding; conditions: for NMR sat. transfer: Table 2, paHO; for NMR pa-HO: Table 3A
[5] = system: P. aeruginosa; test: MIC50 for P. aeruginosa; format: cell-based, Pseudomonas aeruginosa; conditions: for MIC / minimum inhibition conc: Table 2; for MIC: read-out: minimum inhibition conc
[6] = target: T1, nm-HO; format: cell-based; parameters: key to E. coli assay biliverdin pigmentation: + biliverdin observed in cell pellet; − biliverdin not observed
[7] = system: P. aeruginosa MPA01; format: cell-based; conditions: 500 μM and above
[8] = Pseudomonas aeruginosa, Table 3A, read-out: MIC 50
[9] = Table 2, colour of cell pellet (white = no biliverdin, green = biliverdin) or toxicity to cells
[10] = Table 3B, nm-HO in E. coli expression system
[11] = Pseudomonas aeruginosa, Table 3B, P. aeruginosa, read-out: MIC 50
[12] = Table 4, target not named, values match nm-HO of Table 3A
Wherever NMR pa-HO is given: key: Shows binding by NMR method = +; Ambig = ambiguous.

T1 sequence (Q9AH50 1-209): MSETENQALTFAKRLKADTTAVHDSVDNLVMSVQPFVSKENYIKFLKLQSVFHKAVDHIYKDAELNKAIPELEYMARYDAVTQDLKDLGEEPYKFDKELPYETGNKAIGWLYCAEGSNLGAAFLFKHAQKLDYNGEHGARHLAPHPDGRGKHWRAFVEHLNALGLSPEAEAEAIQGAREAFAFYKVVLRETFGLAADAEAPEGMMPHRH
T2 sequence (O69002 1-198): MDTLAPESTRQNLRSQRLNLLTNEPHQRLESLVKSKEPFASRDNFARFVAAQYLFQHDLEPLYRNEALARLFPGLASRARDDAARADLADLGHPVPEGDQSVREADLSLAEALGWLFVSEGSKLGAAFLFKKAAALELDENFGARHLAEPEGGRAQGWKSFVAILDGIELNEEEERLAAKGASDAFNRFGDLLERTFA

SMILES | fluorescence binding [2] | NMR sat. transfer [4] | NMR pa-HO [4] | MIC ([5]; Pseudomonas aeruginosa) [µg/mL] | MIC50 [5, 8] [µg/mL] | MIC50 ([5]; Table 3B, P. aeruginosa) [µg/mL] | E. coli assay [6, 9] | Biliverdin detection from E. coli Assay ([6]; Table 3A, pellet colour) | Biliverdin detection from E. coli Assay [6, 10] | minimum inhibition conc [5] | MIC 50 (ug/ml) ([5]; Table 3A) | also measured
CN(C)c1ccc(/C=N/NC(=N)N)cc1 [Compound 1] | yes | yes, bind paHO | + | > 160 | > 160 | >160 | white pellet | White pellet | White pellet |  |  | pKd ([1]; Table 3A, read-out: Fluorescence nm-HO Kd): 4.64; pKd ([1]; Table 4, target not named, values match nm-HO of Table 3A, read-out: Kd): 4.64; pKd ([2]; Table 3A): 4.52; C. elegans assay ([3]; Table 2): yes; E. coli assay biliverdin pigmentation ([6]; E. coli cells expressing nm-HO, cell pellet): −; E. coli assay ([6]; Table 4): White pellet
NC(=O)c1ccc(NC(=O)/C=C\C(=O)O)cc1Cl [Compound 8] |  |  |  | > 750 | > 750 | >750 | green pellet | Green Pellet | Green Pellet |  |  | E. coli assay ([6]; Table 4): Green Pellet
O=C(NNC(=O)c1ccncc1)c1ccncc1 [Compound 24] | Alias: CD-18 (Compound 7 in manuscript) fluorescence binding: yes minimum inhibition conc: nd NMR sat. transfer: nd E. coli assay: green pellet |  |  |  |  |  | Alias: CD-18 (Compound 7 in manuscript) fluorescence binding: yes minimum inhibition conc: nd NMR sat. transfer: nd E. coli assay: green pellet | Green Pellet | Green Pellet |  |  | E. coli assay ([6]; Table 5): Green Pellet
O=C(O)CSc1ncnc2ccccc12 [Compound 36] |  | binds paHO | + |  |  |  |  |  |  | no antibacterial activity | no antibact activity | 
O=C(Cc1ccc([N+](=O)O)cc1)N/N=C/c1ccc(O)cc1 [Compound 44] |  | Alias: CB-22 fluorescence binding: nd minimum inhibition conc: nd NMR sat. transfer: tested, ambiguous | Ambig |  |  |  |  |  |  |  |  | pKd [1]: 4.91
O=C(O)CCC(=O)Nc1ccc(Oc2ccccc2)cc1 [Compound 48] |  | do not bind paHO |  |  |  |  | white pellet |  |  |  |  | 
COc1ccc(C(=O)CCC(=O)O)c(C)c1 [Compound 59] | yes | yes, bind paHO | + | > 1000 | > 1000 | >1000 |  |  |  |  |  | 
CC(=O)Oc1ccc(-c2cccc(C(=O)O)c2)cc1 [Compound 61] |  | yes, bind to paHO | + |  |  |  |  |  |  | no antibacterial activity | no antibact activity | 
O=C(O)/C=C\C(=O)Nc1ccc(Nc2ccccc2)cc1 [Compound 75] | yes |  |  | > 1000 | > 1000 | >1000 | white pellet | White pellet | White pellet |  |  | pKd [1]: 4.81; pKd ([2]; Table 3A): 4.70; C. elegans [3]: no effect; E. coli assay ([6]; Table 4): White pellet
O=[N+]([O-])c1cccc(CN2CCNCC2)c1 [Compound 83] |  | yes, bind paHO | + |  |  |  |  |  |  | no antibacterial activity | no antibact activity | 
Cc1cc(-c2ccc(F)cc2)nc2cc(C(=O)O)nn12 [Compound 85] |  | yes, bind paHO | + |  |  |  |  |  |  | no antibacterial activity | no antibact activity | MIC50 [5, 11]: > 1000 µg/mL
NCc1ccc2c3c(cccc13)C(=O)N2 [Compound 87] |  | yes, bind paHO | + | > 125 | > 125 | >125 |  |  |  |  |  | C. elegans [3]: Inconclusive
CC(N)c1ccc2ccccc2c1 (centres unmarked) [Compound 103] |  | yes, bind paHO | + | > 250 | > 250 | >250 |  |  |  |  |  | 
O=C1C=C(Nc2ccccc2O)c2ccccc2C1=O [Compound 114] | yes |  |  |  |  |  | toxic to cells | Toxic | Toxic |  |  | pKd [1]: 4.54; E. coli assay ([6]; Table 6): Toxic
Cc1cc(C(=O)O)nn1-c1ccccc1 [Compound 115] |  | yes, bind paHO | + |  |  |  |  |  |  | no antibacterial activity | no antibact activity | MIC50 [5, 11]: > 1000 µg/mL
CC(=O)Nc1ccc(/N=C/c2ccco2)cc1 [Compound 119] | yes | do not bind paHO |  |  |  |  |  |  |  |  |  | 
O=C(Cc1ccc(Cl)cc1)N/N=C/c1c[nH]c2ccccc12 [Compound 126] | yes |  |  |  |  |  | white pellet | White pellet | White pellet | no antibacterial activity | no antibact activity | pKd [1]: 4.85; pKd [1, 12]: 4.85; pKd ([2]; Table 3A): 4.80; MIC50 [5, 11]: > 1000 µg/mL; E. coli assay ([6]; Table 4): White pellet
NCC(=O)N(O)Cc1ccccc1 [Compound 127] |  | yes, bind paHO | + | > 1000 | > 1000 | >1000 |  |  |  |  |  | 
NCC(O)(c1ccc(Cl)cc1)c1ccc(Cl)cc1 [Compound 131] |  | yes, bind paHO | + | > 250 | > 250 | >250 |  |  |  |  |  | 
O=C(c1ccco1)C12CN3CN(CN(C3)C1)C2 [Compound 133] |  |  |  |  | > 380 | >380 | Alias: CB-9 fluorescence binding: nd minimum inhibition conc: nd NMR sat. transfer: nd E. coli assay: green pellet | Green Pellet | Green Pellet |  |  | E. coli assay ([6]; Table 4): Green Pellet
Cl.N=C(N/N=C\c1cccnc1)N/N=C\c1cccnc1 [Compound 148] | Alias: CB-31 Compound 1 in manuscript fluorescence binding: yes minimum inhibition conc: no antibacterial activity NMR sat. transfer: E. coli assay: white pellet |  |  |  |  |  | white pellet | White pellet | White pellet | no antibacterial activity | no antibact activity | pKd [1]: 4.91; pKd [1, 12]: 4.91; pKd [2]: 4.80; MIC50 [5, 11]: > 1000 µg/mL; E. coli assay ([6]; Table 4): White pellet
CCN(CC)c1ccc(/C=N/n2nnnc2N)c(O)c1 [Compound 149] | yes | do not bind paHO |  |  |  |  |  |  |  |  |  | 
O=C(O)CN1C(=O)c2ccccc2C1=O [Compound 150] | yes | yes, bind paHO | + |  |  |  |  |  |  | no antibacterial activity | no antibact activity | MIC50 [5, 11]: > 1000 µg/mL
Cn1c(=O)c(CC(=O)C(=O)O)nc2ccccc21 [Compound 152] |  | yes, bind paHO | + |  |  |  |  |  |  | no antibacterial activity | no antibact activity | MIC50 [5, 11]: > 1000 µg/mL
Cn1c(=N)n(CC(=O)O)c2ccccc21 [Compound 153] |  | Alias: CD-9 fluorescence binding: nd minimum inhibition conc: nd NMR sat. transfer: do not bind paHO |  |  |  |  |  |  |  |  |  | 
O=C(O)/C=C\C(=O)Nc1ccc(Nc2ccccc2)cc1 [chembridge010392] |  |  |  |  |  |  |  |  |  |  |  | inhibitory effect in the presence of Fe(III)-pyoverdine [7]: slight inhibitory effect
